Legend:
[1] = target: Calcitonin gene-related peptide type 1 receptor (Homo sapiens, UniProt Q16602); test: Binding affinity to human CGRP receptor
[2] = Hydrolytic stability assessed as formation of (R)-2-(4-(8-fluoro-2-oxo-1,2-dihydroquinazolin-3(4H)-yl)piperidine-1-carboxamido)-3-(7-methyl-1H-indazol-5-yl)propanoic acid in 0.05 M buffer at pH 5 after 12 weeks; type: physicochemical; parameters: scale not given: the % may be the effect or the level left; details: pH 5, 2016 h
[3] = Hydrolytic stability assessed as formation of 8-fluoro-3-(piperidin-4-yl)-3,4-dihydroquinazolin-2(1H)-one in 0.05 M buffer at pH 5 after 12 weeks; type: physicochemical; parameters: scale not given: the % may be the effect or the level left; details: pH 5, 2016 h
[4] = Oxidative stability assessed as compound remaining in water at 0.15 mg/mL at pH 4 after 48 hrs in presence of free radical generator AAPH; type: physicochemical; details: read-out: Activity
[5] = Hydrolytic stability assessed as compound remaining in water at 0.15 mg/mL at pH 4 after 4 weeks; type: physicochemical; details: read-out: Activity
[6] = Oxidative stability assessed as formation of N-((R)-1-(1,4'-bipiperidin-1'-yl)-3-(7-methyl-1H-indazol-5-yl)-1-oxopropan-2-yl)-4-(8-fluoro-4-hydroxy-2-oxo-1,2-dihydroquinazolin-3(4H)-yl)piperidine-1-carboxamide in 0.05 M buffer at pH 5 after 12 weeks; type: physicochemical; details: pH 5, 2016 h
[7] = Solubility at pH 7; type: physicochemical; details: buffer

Chain of Calcitonin gene-related peptide type 1 receptor (Q16602 whole entry): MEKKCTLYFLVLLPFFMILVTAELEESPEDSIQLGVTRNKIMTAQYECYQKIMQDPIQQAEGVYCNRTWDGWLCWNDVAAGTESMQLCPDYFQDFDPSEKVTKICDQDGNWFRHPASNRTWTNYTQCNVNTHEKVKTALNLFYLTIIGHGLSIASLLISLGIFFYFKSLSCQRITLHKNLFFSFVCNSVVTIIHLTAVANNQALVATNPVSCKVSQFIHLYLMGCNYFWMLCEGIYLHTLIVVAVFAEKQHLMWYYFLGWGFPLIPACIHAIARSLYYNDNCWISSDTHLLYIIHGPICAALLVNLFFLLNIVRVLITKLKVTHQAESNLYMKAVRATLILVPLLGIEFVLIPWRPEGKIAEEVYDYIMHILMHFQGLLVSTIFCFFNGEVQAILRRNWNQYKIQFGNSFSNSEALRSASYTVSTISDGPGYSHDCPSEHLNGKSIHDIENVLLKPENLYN

Cc1cc(C[C@@H](OC(=O)N2CCC(c3cc4ccccc4[nH]c3=O)CC2)C(=O)N2CCN(C3CCCCC3)CC2)cc2cn[nH]c12
IC50 [1]: 20 pM

Cc1cc(C[C@@H](NC(=O)N2CCC(N3Cc4cccc(F)c4NC3=O)CC2)C(=O)N2CCC(N3CCCCC3)CC2)cc2cn[nH]c12
Activity [2]: 0.2% | Activity [3]: 0.4% | remaining at 48 h, 0.15 mg/mL [4]: 72% | remaining at 672 h, 0.15 mg/mL [5]: 56% | Activity [6]: 2%

Cc1cc(C[C@@H](OC(=O)N2CCC(N3Cc4ccc(F)cc4NC3=O)CC2)C(=O)N2CCC(N3CCCCC3)CC2)cc2cn[nH]c12
IC50 [1]: 22 pM

Cc1cc(C[C@@H](OC(=O)N2CCC(c3cc4cccc(F)c4[nH]c3=O)CC2)C(=O)N2CCC(N3CCCCC3)CC2)cc2cn[nH]c12
IC50 [1]: 57 pM

Cc1cc(C[C@@H](OC(=O)N2CCC(N3Cc4ccccc4NC3=O)CC2)C(=O)N2CCC(N3CCCCC3)CC2)cc2cn[nH]c12
IC50 [1]: 10 pM

Cc1cc(C[C@@H](OC(=O)N2CCC(c3cc4ccccc4[nH]c3=O)CC2)C(=O)N2CCC(N3CC=CCC3)CC2)cc2cn[nH]c12
IC50 [1]: 53 pM

Cc1cc(C[C@@H](OC(=O)N2CCC(c3cc4ccccc4cn3)CC2)C(=O)N2CCC(N3CCCCC3)CC2)cc2cn[nH]c12
IC50 [1]: 180 pM

Cc1cc(C[C@@H](OC(=O)N2CCC(c3cc4ccccc4[nH]c3=O)CC2)C(=O)N2CCCCC2)cc2cn[nH]c12
IC50 [1]: 1800 pM

Cc1cc(C[C@@H](OC(=O)N2CCC(c3cc4ccccc4[nH]c3=O)CC2)C(=O)N2CCC3(CCN(C)CC3)CC2)cc2cn[nH]c12
IC50 [1]: 44 pM

Cc1cc(C[C@@H](OC(=O)N2CCC(n3cc(-c4ccccc4)[nH]c3=O)CC2)C(=O)N2CCC(N3CCCCC3)CC2)cc2cn[nH]c12
IC50 [1]: 68 pM

Cc1cc(C[C@@H](OC(=O)N2CCC(c3cc4ccccc4[nH]c3=O)CC2)C(=O)N2CCN(c3ccc(F)cc3)CC2)cc2cn[nH]c12
IC50 [1]: 130 pM

Cc1cc(C[C@@H](OC(=O)N2CCC(c3cc4ccccc4[nH]c3=O)CC2)C(=O)N2CCC(N3CCCCC3)CC2)cc2cn[nH]c12
IC50 [1]: 17 pM | remaining at 48 h, 0.15 mg/mL [4]: 97% | solubility [7]: > 50 mg/mL | remaining at 672 h, 0.15 mg/mL [5]: 99%

Cc1cc(C[C@@H](OC(=O)N2CCC(c3cc4ccccc4[nH]c3=O)CC2)C(=O)N2CCN(c3ccncc3)CC2)cc2cn[nH]c12
IC50 [1]: 63 pM

Cc1cc(C[C@@H](OC(=O)N2CCC(N3Cc4cccc(F)c4NC3=O)CC2)C(=O)N2CCC(N3CCCCC3)CC2)cc2cn[nH]c12
IC50 [1]: 11 pM
